According to patent publication US20240277677A1, “SALT FORM AND CRYSTAL FORM THEREOF OF SULFONYLUREA RING SUBSTITUTED COMPOUND” (priority 2022, published 2024):
In brackets after ≈: the same amount, converted by molar mass.

Experiments:
[1] = Exploration of other crystal forms by changing crystallization conditions; format: physicochemical
Text: Purpose: Explore obtaining other crystal forms by changing crystallization conditions.

[2] = test system: Enterobacter cloacae ATCC BAA-1143 (AmpC); assay: Antibacterial activity MIC, micro-liquid dilution method (CLSI); format: cell-based; details: ATCCBAA1143, E. cloacae ATCC BAA-1143 Class C (AmpC)
Text: (§1) Three strains of Klebsiella pneumonia, ATCC BAA-205 (TEM-1/SHV-1/SHV-12), ATCC BAA-1705 (KPC-2), ATCC BAA-2470 (NDM-1), Enterobacter cloacae ATCC BAA-1143 (AmpC), two strains of Escherichia coli ATCC BAA-2523(OXA-48), ATCC 25922 were used to determine the minimum inhibitory concentration (MIC) of each of the compounds by a micro-liquid dilution method according to the Institute of Clinical and Laboratory Standard (CLSI) requirements. A 2-fold serial dilution of the compound (final concentration ranging from 0.125 μg/ml to 128 µg/ml) was added to a round-bottom 96-well plate (Catalog #3788, Corning), fresh monoclonal bacteria were selected from an overnight cultured Mueller Hinton II Agar medium plate (MHA, Cat. No. 211438, BD BBL™) and suspended in sterile saline, the concentration was adjusted to 1×10^8 CFU/mL, and then the solution was diluted by using a cation-adjusted Hinton Mueller culture medium Cation-Adjusted Mueller Hinton II Broth (MHB, Catalog #212332, BD BBL™) to a concentration of 5×10^5 CFU/ml, and 100 μl of the solution was added to a round bottom 96-well plate containing the drugs. The plate was placed upside down at 37° C. and the MIC value was read after 20-24 h of incubation, and the lowest drug concentration that inhibited the growth of bacteria was set as MIC. For the results see Table 1. Colony-Forming Units (CFU) refers to the total number of bacterial colonies per unit volume.

[3] = test system: Escherichia coli ATCC 25922; assay: as above; format: cell-based; details: ATCC25922, E. coli ATCC 25922
Text: as §1

[4] = test system: Escherichia coli ATCC BAA-2523(OXA-48); assay: as above; format: cell-based; details: ATCCBAA2523, E. coli ATCC BAA-2523 Class D (OXA-48)
Text: as §1

[5] = test system: Klebsiella pneumonia ATCC BAA-1705 (KPC-2); assay: as above; format: cell-based; details: Klebsiella pneumoniae, ATCCBAA1705; K. pneumoniae ATCC BAA-1705 Class A (KPC-2)
Text: as §1

[6] = test system: Klebsiella pneumonia ATCC BAA-205 (TEM-1/SHV-1/SHV-12); assay: as above; format: cell-based; details: Klebsiella pneumoniae, ATCCBAA205
Text: as §1

[7] = test system: Klebsiella pneumonia ATCC BAA-2470 (NDM-1); assay: as above; format: cell-based; details: Klebsiella pneumoniae, ATCCBAA2470; K. pneumoniae ATCC BAA-2470 Class B (NDM-1)
Text: as §1

NC[C@@H]1CN(C[C@@H]2[C@H](NC(=O)/C(=N\OC3(C(=O)O)CC3)c3csc(N)n3)C(=O)N2S(=O)O)S(=O)(=O)N1 (stereo in doubt)
Result of crystallization (exploration of other crystal forms) ([1]; EtOH:H2O = 10:1, first dissolved and then cooled down): No crystal was obtained | Result of crystallization (exploration of other crystal forms) ([1]; EtOH:H2O = 20:1, first dissolved and then cooled down): No crystal was obtained | Result of crystallization (exploration of other crystal forms) ([1]; IPA:H2O = 10:1, first dissolved and then cooled down): No crystal was obtained | Result of crystallization (exploration of other crystal forms) ([1]; IPA:H2O = 20:1, first dissolved and then cooled down): No crystal was obtained | Result of crystallization (exploration of other crystal forms) ([1]; THF:H2O = 10:1, first dissolved at 40° C., cooled to 0~5° C.): No crystal was obtained | Result of crystallization (exploration of other crystal forms) ([1]; acetone:H2O = 20:1, first dissolved and then cooled down): No crystal was obtained | Other crystal forms obtained (conclusion) ([1]; dissolved in different aqueous systems and then crystallized): no other crystal forms were obtained | MIC [2]: 0.5 µg/mL (≈ 0.882 µM) | MIC [3]: 0.25 µg/mL (≈ 0.441 µM) | MIC [4]: 0.125 µg/mL (≈ 0.221 µM) | MIC [5]: 1 µg/mL (≈ 1.76 µM) | MIC [6]: 0.5 µg/mL (≈ 0.882 µM) | MIC [7]: 0.25 µg/mL (≈ 0.441 µM)
